Experimental data taken from patent US20230263817A1, “HIGH DOSE NICOTINAMIDE ADENINE DINUCLEOTIDE (NAD) PRECURSOR REGIMENS FOR REDUCTION OF INFLAMMATION IN HUMAN PATIENTS WITH PREEXISTING INFLAMMATION” (University of Washington, priority 2021, published 2023).

Key:
healthy PBMCs = experiment: Seahorse Mito Stress Test (OCR) of healthy PBMCs after 4-hour in vitro treatment; assay type: cell-based, human; settings: for PBMC maximal OCR: 4-hour increasing concentrations of recombinant human IL1B or IL18
Description: (§1) PBMC and Monocyte isolation. 30-60 ml of fasting blood was collected into EDTA-containing Vacutainers (BD Mfr #364606). Blood then was diluted (1:1) with RPMI medium (Corning; Cat #17-105-CV) and applied to Histopaque gradient medium (Sigma-Aldrich; Cat #10771) using SepMate-50 (STEMCELL Technologies), and centrifuged at 1200 g for 10 minutes. Top layer contained the enriched peripheral blood mononuclear cells (PBMCs) which were collected and followed by centrifugation at 300 g for 10 minutes. The pellet was resuspended with ACK lysis buffer (Gibco; Cat. A1049201) and incubated at room temperature for 5 minutes to remove residual red blood cells. Next, the enriched PBMCs were washed twice with RPMI medium. All PBMC samples were subjected to the baseline Seahorse Mito Stress Test. When available, the remaining cells were used for cytokine mRNA quantitative PCR and in vitro assays. For monocyte isolation, a magnetic bead-based negative-selection monocyte isolation kit (Miltenyi Biotec, 130-096-537) was used per the manufacturer's instructions. Briefly, antibody-conjugated magnetic bead solution was added to isolated PBMCs resuspended in RPMI containing 0.5% BSA and incubated for 20 minutes at 4° C., followed by magnetic column binding and elution. The procedure was repeated once to improve the purity of monocytes. The monocytes were washed once with RPMI prior to subsequent experiments.
Seahorse Mito Stress Test. Oxygen consumption rate (OCR) of freshly isolated PBMCs was assessed using a Seahorse XFe24 analyzer (Agilent Technologies). Briefly, purified PBMCs were resuspended in Seahorse base medium (Agilent Technologies, supplemented with 1 mM pyruvate, 2 mM glutamine, and 10 mM glucose, pH 7.4), and added 10^6 cells/well at equal volume of 500 μL in a Seahorse 24-well plate. The cells were maintained in a non-CO2 incubator and allowed to settle for 30 minutes at 37° C. Next, the plate was centrifuged at 40 g for 10 minutes at room temperature without application of the brake to help cells attach to the bottom of the plate. Drugs used in the assay: 5 μM oligomycin A (Sigma-Aldrich; Cat. 75351), 3 μM Trifluoromethoxy carbonylcyanide phenylhydrazone (FCCP) (Sigma-Aldrich; Cat. C2920), 1 μM Rotenone (Sigma-Aldrich; Cat. […]), 1 μM Antimycin A (Sigma-Aldrich; Cat. […]), 0.5 mM TMPD (Sigma-Aldrich; Cat. T7394) and 10 mM Ascorbate (Sigma-Aldrich; Cat. 95209).
(§2) PBMC and Monocyte Culture. Freshly isolated PBMCs or Monocytes from healthy or HF subjects were resuspended with RPMI medium plus 10% heat inactivated FBS. PBMCs (10^6 cells/well) were seeded in Seahorse 24-well plates and incubated at 37° C. in CO2 incubator with various proinflammatory triggers (Vehicle, MitoDAMP, LPS) and compounds (NR, MCC 950, MitoTempo, or LMT-28). After 4 hours incubation, the plate was centrifuged at 40 g for 10 minutes at room temperature without application of the brake to help cells attach to the bottom of the plate. The cells were washed twice and then brought up to 500 μL using Seahorse base medium (Agilent Technologies, supplemented with 1 mM pyruvate, 2 mM glutamine, and 10 mM glucose, pH 7.4).

Complex I = settings: healthy PBMC, 4-hour IL6 (1 ng/mL) vs vehicle
Description: Complex I in vitro assay. This assay was performed using Abcam Complex I Enzyme Activity Microplate Assay Kit (ab109721), per the manufacturer's protocol. Briefly, following a 4-hour treatment with vehicle or IL6, 5×10^6 PBMCs were washed with PBS and lysed by detergent for 30 minutes on ice, followed by centrifugation at 16,000 g for 20 minutes at 4° C. Supernatant was taken for protein concentration determination. 12.5 μg of total protein in a final volume of 200 μL was incubated in microplates precoated with anti-Complex I antibody for 3 hours at room temperature. Post-washing step, NADH and dye were added, and optical density (OD) was serially measured at 450 nm over 1 hour. The slope of the curve within the linear range was recorded as Complex I activity.

[1] = system: monocytes isolated from healthy subjects; experiment: Maximal respiration of isolated monocytes after 4-hour IL6 treatment; assay type: cell-based; settings: 4-hour 1 ng/mL recombinant human IL6
Description: as §1, with “Briefly, antibody-conjugated magnetic bead solution was added to isolated PBMCs resuspended in RPMI containing 0.5% BSA and incubated for 20 minutes at 4° C., followed by magnetic column binding and elution. The procedure was repeated once to improve the purity of monocytes. The monocytes were washed once with RPMI prior to subsequent experiments.” left out
Seahorse Mito Stress Test. Oxygen consumption rate (OCR) of freshly isolated PBMCs was assessed using a Seahorse XFe24 analyzer (Agilent Technologies). […]

[2] = system: NLRP3 and pro-inflammatory cytokine (IL1β, IL6, IL18, TNFα) mRNA in healthy PBMCs; experiment: RT-qPCR of NLRP3 and pro-inflammatory cytokine mRNA in healthy PBMCs treated in vitro; assay type: cell-based, human; settings: 4-hour MitoDAMP with 0.5 mM MitoTempo relative to MitoDAMP alone
Description: as §2
IL6 ELISA. Isolated PBMCs (4×10^6 cells per sample) from healthy or HF participants were resuspended in RPMI medium containing 10% heat-inactivated FBS and treated with various proinflammatory triggers (Vehicle, MitoDAMP, LPS) and compounds (NR, MCC 950, MitoTempo, or LMT-28) to final PBMC concentrations of 10×10^6 cells per mL. See below for detailed descriptions of the reagents. The samples were incubated in Eppendorf tubes at 37° C. in a 5% CO2 incubator with caps open for times designated in the brief description of drawings. The cultured PBMC samples were centrifuged at 8,000 RPM at room temperature. The supernatant was used for ELISA per the manufacture protocol using R&D Systems human IL6 kit (Cat #DY206-05). The cell pellets were stored in −80° C.
RNA Isolation and Quantitative PCR analysis. Total RNA was isolated from frozen PBMC pellets using Trizol (Invitrogen) per the manufacturer's instructions, and cDNA was synthesized using iScript™ Reverse Transcription Supermix (Bio-rad) per the manufacturer's instructions. Real-time PCR was performed in the Corbett rotor gene 6000 real-time PCR machine using iQ™ SYBR® Green Supermix (Bio-rad) and expression levels of the indicated genes were calculated using the ΔΔCt method.

CC(C)(O)c1coc(S(=O)(=O)NC(=O)Nc2c3c(cc4c2CCC4)CCC3)c1 [MCC950]
maximal OCR (healthy PBMCs; healthy PBMC, 4-hour MitoDAMP with 1 μM MCC950): marginally improved

recombinant IL1β: human recombinant IL1β, purchased from R&D Systems
PBMC maximal OCR (healthy PBMCs; healthy PBMCs): did not result in a significant decrease

IL18: human recombinant IL18, purchased from R&D Systems
PBMC maximal OCR (healthy PBMCs; healthy PBMCs): did not result in a significant decrease

recombinant IL6: human recombinant IL6, purchased from Gibco
Complex I enzymatic activity (Complex I): reduced | OCR through Complex IV (TMPD and ascorbate as electron donors) (healthy PBMCs; healthy PBMC, 4-hour IL6 (1 ng/mL) vs vehicle): no difference | maximal OCR (healthy PBMCs; healthy PBMCs, 4-hour increasing concentrations of human recombinant IL6): dose-dependent decline | lowest IL6 concentration with significant reduction of maximal OCR (healthy PBMCs; healthy PBMCs, 4-hour treatment): 0.1 ng/mL | maximal OCR of monocytes [1]: decreased

CC1(C)CC(NC(=O)C[P+](c2ccccc2)(c2ccccc2)c2ccccc2)CC(C)(C)N1[O] [MitoTempo]
maximal OCR (healthy PBMCs; healthy PBMC, 4-hour MitoDAMP with 0.5 mM MitoTempo vs MitoDAMP alone): did not change | cytokine gene expressions [2]: markedly attenuated
